Reference: patent publication US9394352B2, “Immunogenic POTE peptides and methods of use” (The United States of America, as represented by the …, priority 2010, dated 2016)

Tests used:
[1] = system: C1R.AAD cells pulsed with peptide; test: 4-hour 51Cr release CTL assay after one week in vitro stimulation; format: cell-based, human; settings: CTLs from immunized AAD mice, restimulated 7 days with 1.0 μM peptide; targets pulsed with 1.0 μM peptide
Procedure: (§1) FIGS. 3A and 3B are graphs showing immunogenicity of the wild type and enhanced POTE 252 epitopes in AAD mice. AAD mice were immunized subcutaneously with a mixture of peptide and cytokines in adjuvant as described in Example 1. (FIG. 3A) Two weeks after the second boost, splenocytes pooled from three mice were restimulated with splenocytes of naïve AAD mice pulsed with 1.0 μM of each peptide at different effector to target (E/T) ratios. Cells were cultured in anti-mouse IFN-γ antibody coated ELISPOT™ plates. After overnight culture, biotinylated anti-mouse IFN-γ antibodies were added to each well. ELISPOT™ substrates were added to develop the color and spots were counted by an ELISPOT™ reader (AID ELISPOT™ reader system). Figures show numbers of spots per million cells. (FIG. 3B) CTL cross-reactivity on each peptide. Two weeks after the second boost, pooled spleen cells from three mice were restimulated with irradiated splenocytes pulsed with 1.0 μM of peptide for 7 days. In a 4-hour ^51Cr release assay, CIR.AAD cells were pulsed with 1.0 μM of peptide and labeled with ^51Cr. After washing three times, target cells were mixed with different numbers of effector cells and then cultured for 4 hours before harvesting.
(§2) FIGS. 4A-4D are graphs showing immunogenicity of the wild type and enhanced POTE 553 epitopes in AAD mice. AAD mice were immunized subcutaneously with a mixture of peptide and cytokines in adjuvant. (FIGS. 4A and 4B) Two weeks after the second boost, splenocytes pooled from three mice were restimulated with splenocytes of naïve AAD mice pulsed with 10 nM to 1.0 μM of each peptide at different E/T ratios. Cells were cultured in anti-mouse IFN-γ antibody coated ELISPOT™ plates. After overnight culture, biotinylated anti-mouse IFN-γ antibodies were added to each well. ELISPOT™ substrates were added to develop color and spots were counted by an ELISPOT™ reader (AID ELISPOT™ reader system). Figures show numbers of spots per million cells. (FIGS. 4C and 4D) CTL cross-reactivity on each peptide. Two weeks after the second boost, pooled spleen cells from three mice were restimulated with irradiated splenocytes pulsed with 1.0 μM of peptide for 7 days. In a 4-hour ^51Cr release assay, CIR.AAD cells were pulsed with 1.0 μM of peptide and labeled with ^51Cr. After washing three times, target cells were mixed with different numbers of effector cells and then cultured for 4 hours before harvesting.
(§3) FIGS. 5A and 5B are graphs showing immunogenicity of the POTE 272 epitope in AAD mice. AAD mice were immunized subcutaneously with a mixture of peptide and cytokines in adjuvant. (FIG. 5A) Two weeks after the second boost, splenocytes pooled from three mice were restimulated with splenocytes of naïve AAD mice pulsed with 1.0 μM POTE 272 peptide at different E/T ratios. Cells were cultured in anti-mouse IFN-γ antibody coated ELISPOT™ plates. After overnight culture, biotinylated anti-mouse IFN-γ antibodies were added in each well. ELISPOT™ substrates were added to develop color and spots were counted by an ELISPOT™ reader (AID ELISPOT™ reader system). Figures show numbers of spots per million cells. (FIG. 5B) CTL reactivity on POTE 272 peptide. Two weeks after the second boost, pooled spleen cells from three mice were restimulated with irradiated splenocytes pulsed with 1.0 μM POTE 272 peptide for 7 days. In a 4-hour ^51Cr release assay, CIR.AAD cells were pulsed with 1.0 μM POTE 272 peptide and labeled with ^51Cr. After washing three times, target cells were mixed with different numbers of effector cells and then cultured for 4 hours before harvesting.
(§4) FIGS. 6A and 6B are graphs showing immunogenicity of the wild type and enhanced POTE 323 epitopes in AAD mice. AAD mice were immunized subcutaneously with a mixture of peptide and cytokines in adjuvant. (FIG. 6A) Two weeks after the second boost, splenocytes pooled from three mice were restimulated with splenocytes of naïve AAD mice pulsed with 1.0 μM of each peptide at different E/T ratios. […]

[2] = system: IFN-γ secreting spleen cells; test: ex vivo IFN-γ ELISPOT assay on splenocytes of peptide-immunized AAD mice; format: in vivo; settings: AAD mice immunized s.c., splenocytes pooled from three mice two weeks after boost
Procedure: as §1, §2, §3, §4

**Q.** For “KLMAKALLL [POTE 252-260, unmodified 9-mer peptide, residues 252-260 of human POTE]”, which “CTL lysis of peptide-pulsed target cells” value [1] is on record?
**A.** Its value is “lysed target cells pulsed with the wild-type POTE 252 as well as POTE 252-9V”.

**Q.** What about the “IFN-γ response (ELISPOT spots) on stimulation with the immunizing peptide” value [2] of the same sequence?
**A.** Its value is “induced a significant number of IFN-γ spots”.
